Test results published in patent US10815379B2, “pH sensitive fluorescent probe” (The University of Tokyo, priority 2015, dated 2020).
Read-outs that look alike come from different tables or passages of the source. One block for each molecule: values may come before it.

Experiments:
[1] = cited from earlier work
[2] = Optical characteristics (absorption, fluorescence, excitation spectra) in 100 mM sodium phosphate buffer; format: physicochemical; conditions: for absorption maximum / absorption wavelength, acidic pH: acidic solution; for absorption maximum / absorption wavelength, basic pH: basic solution
Protocol: The spectral characteristics of compound 1 of the present invention (2,6-diMe BnPiperaIndoSiR) were evaluated. The absorption spectrum, fluorescence spectrum, and excitation spectrum were measured using a Shimadzu UV-1650PC absorption spectrophotometer and a Hitachi F-4500 fluorometer.
(§1) FIG. 2a represents the assumed chemical equilibrium equation of 2,6-diMe BnPiperaIndoSiR. FIGS. 2b, 2c, and 2d respectively represent the absorption, fluorescence, and excitation spectra of 2,6-diMe BnPiperaIndoSiR in 100 mM sodium phosphate buffer (containing 1% DMSO) of different pH.
The spectral characteristics of compound 2 of the present invention (SiRpH3) were evaluated. The absorption spectrum fluorescence spectrum, and excitation spectrum were measured using a Shimadzu UV-1650PC absorption spectrophotometer and a Hitachi F-4500 fluorometer.
(§2) FIGS. 3a, 3b, and 3c represent the absorption, fluorescence, and excitation spectra of SiRpH3 in 100 mM sodium phosphate buffer (containing 1% DMSO) of different pH.
The spectral characteristics of compound 3 of the present invention (SiRpH4) were evaluated. The absorption spectrum fluorescence spectrum, and excitation spectrum were measured using a Shimadzu UV-1650PC absorption spectrophotometer and a Hitachi F-4500 fluorometer.
(§3) FIGS. 4a and 4b represent the absorption and excitation spectra of SiRpH4 in 100 mM sodium phosphate buffer (containing 1% DMSO) of different pH.
The spectral characteristics of compound 4 of the present invention (SiRpH5) were evaluated. The absorption spectrum fluorescence spectrum, and excitation spectrum were measured using a Shimadzu UV-1650PC absorption spectrophotometer and a Hitachi F-4500 fluorometer.
(§4) FIG. 5a represents the assumed chemical equilibrium equation of SiRpH5. FIGS. 5b and 5c represent the absorption and excitation spectra of SiRpH5 in 100 mM sodium phosphate buffer (containing 1%) DMSO) of different pH.

[3] = pKa of the protonation reaction from plot of absorbance or fluorescence intensity ratio vs. pH; format: physicochemical; conditions: for pKa of the protonation reaction: 100 mM sodium phosphate buffer, 1% DMSO
Protocol: as §1, §2, §3, §4

[4] = pH 3.0, 100 mM sodium phosphate buffer
[5] = pH 10.0, 100 mM sodium phosphate buffer
[6] = Table 2, pH 3.0, 100 mM sodium phosphate buffer
[7] = Table 2, pH 7.4, 100 mM sodium phosphate buffer
[8] = Table 2, pH 10.0, 100 mM sodium phosphate buffer
[9] = Table 3, pH 3.0, 100 mM sodium phosphate buffer
[10] = Table 3, pH 10.0, 100 mM sodium phosphate buffer

Molecule: 2′,7′-bis-(2-carboxyethyl)-5- (and -6-)carboxyfluoresceins [BCECF]
pKa [1]: 7.0

Molecule: Cc1cccc(C)c1C1=c2cc3c(cc2[Si](C)(C)c2cc(N4CCN(Cc5ccccc5S(=O)(=O)O)CC4)ccc21)=[N+](C)CC3 [SiRpH4]
shift of the pKa of the ratio value change [3]: shifted to the basic side in comparison to SiRpH3

Molecule: Cc1cc(C(=O)O)cc(C)c1C1=c2cc3c(cc2[Si](C)(C)c2cc(N4CCN(Cc5ccc(S(=O)(=O)O)cc5S(=O)(=O)O)CC4)ccc21)=[N+](C)CC3.O=C([O-])C(F)(F)F [SiRpH5]
Λem [2, 9]: 679 nm | Λex [2, 9]: 588 nm | Φfl [2, 9]: 0.21 | ε [2, 9]: 23,000 M^−1cm^−1 | Λem [2, 10]: 690 nm | Λex [2, 10]: 668 nm | Φfl [2, 10]: 0.08 | ε [2, 10]: 33,000 M^−1cm^−1 | absorption maximum / absorption wavelength, acidic pH [2]: approximately 590 nm | absorption maximum / absorption wavelength, basic pH [2]: approximately 670 nm | pKa of the protonation reaction ([3]; from plot of fluorescence intensity ratio (700 nm, excitation 580 nm / 663 nm) vs. pH): 6.1 | shift of the pKa of the ratio value change ([3]; in comparison to the named probe): shifted to the acidic side in comparison to SiRpH4

Second part, the molecule after the results:

Absmax [2, 4]: 588 nm | E [2, 4]: 26,000 M^−1 cm^−1 | Emmax [2, 4]: 676 nm | Φfl [2, 4]: 0.19 | Absmax [2, 5]: 663 nm | E [2, 5]: 33,000 M^−1 cm^−1 | Emmax [2, 5]: 689 nm | Φfl [2, 5]: 0.12 | decrease of pKa in comparison to 2-Me MePiperaIndoSiR ([3]; by benzylation of the piperazine aliphatic amino group): 0.9 | pKa of the protonation reaction ([3]; from changes in absorbance at 663 nm when the pH was varied): 6.4
Molecule: Cc1cccc(C)c1C1=c2cc3c(cc2[Si](C)(C)c2cc(N4CCN(Cc5ccccc5)CC4)ccc21)=[N+](C)CC3.O=C(O)C(F)(F)F [2,6-diMe BnPiperaIndoSiR]

lengthening of the absorption wavelength as the pH moved from acidic to basic [2]: approximately 80 nm | Absmax [2, 6]: 585 nm | E [2, 6]: 25,000 M^−1cm^−1 | Emmax [2, 6]: 676 nm | Φfl [2, 6]: 0.20 | Absmax [2, 7]: 662 nm | E [2, 7]: 30,000 M^−1cm^−1 | Emmax [2, 7]: 688 nm | Φfl [2, 7]: 0.12 | Absmax [2, 8]: 663 nm | E [2, 8]: 31,000 M^−1cm^−1 | Emmax [2, 8]: 689 nm | Φfl [2, 8]: 0.11 | absorption maximum / absorption wavelength, acidic pH [2]: approximately 580 nm | absorption maximum / absorption wavelength, basic pH [2]: approximately 660 nm
Molecule: Cc1cccc(C)c1C1=c2cc3c(cc2[Si](C)(C)c2cc(N4CCN(Cc5cccc(F)c5)CC4)ccc21)=[N+](C)CC3.O=C(O)C(F)(F)F [SiRpH3]
